From EP2842557A1, “Mildronate in ophthalmic disorders” (SIGMA-TAU Industrie Farmaceutiche Riunite S.p.A., priority 2013, dated 2015)

What was measured:
Assay type in all cases: in vivo, male Wistar rats
[1] = tested on: RGCs and astrocytes cells of the optic nerve; assay: TUNEL assay (DNA damage) on eye sections after intraocular injection; settings: 24 hours
Procedure: A group of 55 male Wistar rats, average weight 300-350 g, were housed in controlled light and temperature with unlimited access to food and water. 20 animals were submitted to intraocular injection of 0.5 mM, 2 mM, 3.5 mM, 5 mM mildronate, 15 µl in physiological solution, to standardize experimental conditions (data not shown). A group of 5 animals were submitted to intraocular injection of 2% methylcellulose (MTC), 15 µl in physiological solution. MTC is a molecule capable of mechanically blocking the outflow of aqueous humor leading to ocular hypertension. […]
The sections (thickness of 10 µm), left to dry at room temperature for 30 min, were subjected to the following treatments: rehydration through a descending alcohol series (100°, 95°, 75°; 2 min each); incubation with protease 20 µg/mL in Triton X-100 to 0.1% at 37°C for 30 min; washes with 1X PBS for 2 min; incubation with TUNEL reagent (In Situ Cell Death Detection Kit, AP/ROCHE), containing 1/10 in volume of terminal deoxynucleotidyl transferase and the remaining fraction of nucleotides labeled with a fluorescent chromophore, 10 µl per section at 37°C for 1h. […] The observations were made under a fluorescence microscope and pictures were taken by computerized image acquisition.

optic nerve and retina = assay: Cellular morphology of optic nerve and retina sections after intraocular injection; settings: 24 hours
Procedure: (§1) A group of 55 male Wistar rats, average weight 300-350 g, were housed in controlled light and temperature with unlimited access to food and water. 20 animals were submitted to intraocular injection of 0.5 mM, 2 mM, 3.5 mM, 5 mM mildronate, 15 µl in physiological solution, to standardize experimental conditions (data not shown). A group of 5 animals were submitted to intraocular injection of 2% methylcellulose (MTC), 15 µl in physiological solution. MTC is a molecule capable of mechanically blocking the outflow of aqueous humor leading to ocular hypertension.
(§2) Thirty animals were randomly separated into 3 experimental groups: rats from first group received mildronate 5 mM; rats from second group received mildronate 2 mM; rats from third group received mildronate 2 mM + L-carnitine 0.6 mM, 15 µl in physiological solution; all controlateral eyes were used as control.
(§3) After local anesthesia with 0.4% oxybuprocaine eye drops (Novesina™, Novartis, Basel, Switzerland) and after induction with ether, animal were injected in the posterior chamber of the right eye with solutions described above.
24 hours after the intraocular injection, rats were given general anesthesia by intra-peritoneal injection of 500 pl sodium-thiopental solution (Farmotal™, Pharmacia & Upjohn, USA) in saline. They were then sacrificed by carotid bleeding and eyeballs were removed. […]

Caspase-3 = Caspase-3 expression by immunohistochemistry (confirmed by western blot of retina extracts)
Procedure: as §1, §2, §3
(§4) 24 hours after the intraocular injection, rats were given general anesthesia by intra-peritoneal injection of 500 pl sodium-thiopental solution (Farmotal™, Pharmacia & Upjohn, USA) in saline. They were then sacrificed by carotid bleeding and eyeballs were removed.
Caspase-3 expression was detected with a rabbit polyclonal anti-caspase-3 antibody (Santa Cruz) (1:100), followed by a green fluorescent goat anti-rabbit IgG Alexa Fluor® (Molecular Probes) secondary antibody. […]
(§5) The observations were made under a fluorescence microscope and pictures taken by computerized image acquisition. […]

iNOS = iNOS expression by immunohistochemistry (confirmed by western blot of retina extracts)
Procedure: as §1, §2, §3, §4
iNOS expression was detected with a rabbit polyclonal anti-iNOS antibody (Santa Cruz) (1:50), followed by a green fluorescent goat anti-rabbit IgG Alexa Fluor® (Molecular Probes) secondary antibody. […]
as §5

Question: With `C[N+](C)(C)NCCC(=O)[O-]` [mildronate, 3-(2,2,2-trimethylhydrazinium)propionate] as the molecule, how does the “DNA damage (TUNEL fluorescence due to DNA fragmentation)” value ([1]; mildronate 2 mM) read?
Answer: slight positive fluorescence

Question: What about the “DNA damage (TUNEL fluorescence due to DNA fragmentation)” value ([1]; mildronate 5 mM, RGCs and astrocytes of the optic nerve) of the same molecule?
Answer: strong fluorescence

Question: What about the “Cellular morphology of optic nerve” value (optic nerve and retina; mildronate 5 mM, 15 µl intraocular injection, vs control eye) of the same molecule?
Answer: fibers do not run longitudinally, the papilla shows an excavation

Question: And the “Cellular morphology of retina” value (optic nerve and retina; mildronate treated animals, intraocular injection)?
Answer: picnotic and/or vacuolated nuclei and fragmented chromatin

Question: And the Caspase-3 expression (Caspase-3; 2 mM mildronate, optic nerve and retina)?
Answer: mild decrease of positivity

Question: And the Caspase-3 expression (Caspase-3; 5 mM mildronate, astrocytes and retinal cells)?
Answer: high caspase-3 levels

Question: What about the “Apoptosis of retinal ganglion cells and optic nerve astrocytes” value (Caspase-3; summary statement, 24 hours after treatment) of the same molecule?
Answer: showed apoptosis

Question: What about the iNOS expression (iNOS; 2 mM mildronate, optic nerve and retina, with respect to 5 mM mildronate-treated specimens) of the same molecule?
Answer: mild decrease of iNOS expression

Question: What about the iNOS expression (iNOS; 5 mM mildronate, 24 hours, glial retinal cells and astrocytes of optic nerve, compared to control) of the same molecule?
Answer: high levels of iNOS

Question: What about the “NO levels and iNOS immunolocalization” value (iNOS; summary statement, dose not stated) of the same molecule?
Answer: increased NO levels and iNOS immunolocalization
